Source: patent US10426758B2, “Sibiriline derivatives for use for preventing and/or treating disorders associated with cellular necroptosis” (Institut National de la Sante et de la Recherche Medicale …, priority 2015, dated 2019)

How the values were obtained:
U937 cells = test: Anti-necroptotic effect, U937 cells, TRAIL + zVAD, FACS of propidium iodide-stained nuclei; assay type: cell-based
Procedure: (§1) L929 cells, L929AsFas cells, Jurkat FADD-deficient cells (Jurkat FADD^−/−), U937 cells are pretreated for 1 h with increased concentrations of Sib (0, 5, 10, 20 μM) and then treated respectively with TNF-α (10 ng/ml)+zVAD (20 μM), FasL (200 ng/ml)+zVAD (20 μM), TNF-α (10 ng/ml), TRAIL (200 ng/ml)+zVAD (30 μM) or TRAIL (200 ng/ml)+zVAD (30 μM)+CHX (1 μg/ml). % of cell death is determined after 24 h and calculated by a FACS analysis of Propidium Iodide-stained nuclei. In each case, the EC50 is determined as well as the % of rescue from cell death.

[1] = tested on: Jurkat FADD-deficient I 2.1 cell line; test: Cell-based screening: TNF-α-induced necroptosis in Jurkat FADD-deficient cells, MTS viability assay; design: species or system human
Source text: TNF-α can induce necroptosis in Jurkat cells (human T lymphocytes) when FADD is deleted. This model was used to screen various libraries of chemical compounds for characterization of new inhibitors of cellular necroptosis. Details on this cell-based assay can be found in (Miao and Degterev, Methods Mol. Biol. 2009, 559, 79-93). The Jurkat FADD-deficient I 2.1 cell line used was purchased from ATCC and was maintained in RPMI 1640 medium (Gibco) containing Glutamax and 15% fetal calf serum (Life Technology). Necroptosis was induced by addition of 10 ng/ml of human recombinant TNF-α (Life Technology). Necrostatin-1 (Nec-1, Enzo Life Sciences) was used as model necroptosis inhibitor. Cells were maintained in 75 cm^2 flask and passed every 2 or 3 days. Chemical collections analysed were formatted in 96-well plates with 80 molecules per plates at 10 mM in 100% DMSO. For each collection plate, 2 cell plates were seeded (one necroptosis-induced with TNF-α and the other without TNF-α). Cells were seeded at 20000 cells/well, in 40 μl of medium, in a 96-well clear, flat bottom plate (CytoOne, Starlab) before treatment. Then, 40 μl of medium with or without TNF-α at 25 ng/ml were added to all wells in the corresponding plate. Immediately after TNF-α addition, 20 μl of diluted compound at 50 μM were added to the plates. Final concentration of each chemical compound was 10 μM at 0.1% DMSO. Four positives (Nec-1 at 10 μM final) and four negative (DMSO) controls were used in each plate to validate the assay. Cells were incubated at 37° C., 5% CO2 for 24 hours before performing MTS viability assay, described hereafter. Compounds were diluted before to treat cells. Liquid handling was performed using the Nimbus Microlab liquid handler (Hamilton Robotics) under microbiological safety workbench. The 10 mM compounds were diluted at 50 μM directly in cell medium.

[2] = target: T1, Human RIPK1 full length GST-tagged (Homo sapiens, UniProt Q13546); test: RIPK1 autophosphorylation assay; assay type: biochemical; settings: radioactively labeled RIPK1, [γ-32P] ATP, 30 minutes at 30° C.
T1 construct: Human RIPK1 full length GST-tagged; made in house; host or cells: Sf9 insect cells (Bac-to-Bac baculovirus system)
T1 sequence (Q13546 1-671): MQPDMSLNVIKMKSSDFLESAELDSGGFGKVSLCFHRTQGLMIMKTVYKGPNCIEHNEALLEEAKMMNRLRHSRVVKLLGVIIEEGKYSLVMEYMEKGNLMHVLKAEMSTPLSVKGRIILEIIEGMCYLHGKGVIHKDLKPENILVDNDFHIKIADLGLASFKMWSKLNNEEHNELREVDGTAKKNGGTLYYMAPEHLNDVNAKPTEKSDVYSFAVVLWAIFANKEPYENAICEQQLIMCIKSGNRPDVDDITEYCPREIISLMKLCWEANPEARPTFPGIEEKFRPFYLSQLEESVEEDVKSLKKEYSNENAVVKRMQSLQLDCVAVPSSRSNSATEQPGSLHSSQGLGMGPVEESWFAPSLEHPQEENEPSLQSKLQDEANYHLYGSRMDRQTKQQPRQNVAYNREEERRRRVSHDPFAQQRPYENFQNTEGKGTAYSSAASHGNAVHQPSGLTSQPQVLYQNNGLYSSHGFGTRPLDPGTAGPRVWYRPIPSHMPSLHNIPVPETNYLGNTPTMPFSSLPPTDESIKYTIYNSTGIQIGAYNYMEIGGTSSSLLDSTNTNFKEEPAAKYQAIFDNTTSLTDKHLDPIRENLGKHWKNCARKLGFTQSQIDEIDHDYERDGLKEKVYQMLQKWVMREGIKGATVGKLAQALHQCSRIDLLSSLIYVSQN
Procedure: Human RIPK1 full length GST-tagged was baculovirally expressed in Sf9 cells according to manufacturer's instructions (Bac-to-Bac expression system, Invitrogen) and purified using gluthation-sepharose beads (GE Healthcare). The elution was made in 50 mM Tris-HCl, pH 8.0 buffer supplemented with 30 mM reduced gluthatione (Sigma). The protocol used to detect the enzymatic activity is adapted from Miao and Degterev (Methods Mol. Biol. 2009, 559, 79-93). Kinase reaction was initiated mixing 5 μl of eluted RIPK1, 5 μl of 3× kinase reaction buffer (5 mM MOPS pH 7.2, 2.5 mM β-glycerophosphate, 4 mM MgCl2, 2.5 mM MnCl2, 1 mM EGTA, 0.4 mM EDTA, 50 μg/ml BSA, 0.05 mM DTT), 2 μl H2O and 3 μl of the tested molecule. The mixture was kept on ice for 10 minutes. During the incubation, the ATP solution was prepared by mixing 5 μl of 3× kinase reaction buffer, 4 μl H2O, 6 μl cold ATP at 150 μM and 2 μCi of [γ-^32P] ATP. Add the ATP solution and the tested inhibitor to the kinase and incubate for 30 minutes at 30° C. To stop the enzymatic reaction, 5 μl of loading buffer were added and solution was heated for 3 minutes at 95° C. 25 μl of each reaction were loaded per well in pre-cast NuPage 12% Bis-Tris gel (Life Technology). Autophosphorylated RIPK1 band was visualized on radiographic film after 6 h exposition at −80° C.

L929AsFas cells = test: Anti-necroptotic effect, L929AsFas cells, FasL + zVAD, FACS of propidium iodide-stained nuclei; assay type: cell-based
Procedure: as §1

Oc1ccc(-c2cc3cccnc3[nH]2)cc1 [compound 2, 4-(1H-pyrrolo[2,3-b]pyridin-2-yl)phenol]
EC50 (U937 cells; Homo sapiens, U-937, 1 h pretreatment, cell death after 24 h): 4 µM
% Rescue (U937 cells; rescue from cell death, 24 h): 90%
EC50 ([1]; Homo sapiens, Jurkat, necroptosis induced by 10 ng/ml TNF-α, 24 hours, MTS viability): 1.3 µM
inhibition of necroptosis induced by TNF-α (figure legend) ([1]; human T lymphocyte, Jurkat FADD deficient cell line): dose-dependent inhibition
inhibition of RIPK1 autophosphorylation [2]: dose-dependent inhibition
inhibition of RIPK1 autophosphorylation ([2]; listed as Sib): inhibit the RIPK1 autophosphorylation
EC50 (L929AsFas cells; 1 h pretreatment, cell death after 24 h): 2.4 µM
% Rescue (L929AsFas cells; rescue from cell death, 24 h): 80%
